Read-outs that look alike come from different tables or passages of the source.
Tests used:
[1] = Hydrolysis in Simulated Gastric Fluid (SGF) at 37° C., LC/MS; details: for Hydrolysis in SGF: hydrolyzed in 6.75 hours; for Oxycodone, Ketal A-D in hydrolysis mixture: oxycodone 2,4-pentanediol ketal isomers + unreacted oxycodone, 2 mg/nil, SGF 37° C.
[2] = format: physicochemical; details: for time to almost complete hydrolysis: 0.1N HCl 37° C., FIG. 10; for % Oxycodone, % IVA-IVD in hydrolysis mixture: total 1 mg/ml; for % Oxycodone, % IVA-IVD in hydrolysis mixture / % IVC in hydrolysis mixture / % Oxycodone, % IVD in hydrolysis mixture: 0.1 N HCl 37° C.; for relative rate of hydrolysis: comparison of stereoisomers; for % IVC in hydrolysis mixture: isomer IVC tested separately; for % IVC in hydrolysis mixture / % Oxycodone, % IVD in hydrolysis mixture: 1 mg/ml, normalized; for % Oxycodone, % IVD in hydrolysis mixture: isomer IVD tested separately
[3] = unreacted oxycodone + four isomers of Formula IV, 1 mg/ml, 5% acetic acid 100° C.
[4] = Ketal hydrolysis at varying pH, buffers at 37° C.; details: 1 mg/ml; for hydrolysis of the ketal: Table 13b, 37° C.

Structure (SMILES): COc1ccc2c3c1OC1C4(CCC5(O)[C@@H](C2)N(C)CC[C@]315)OCC(C)O4 (some centres unmarked)
- Hydrolysis in SGF [1]: Trace hydrolysis in 6.75 hours

Structure (SMILES): COc1ccc2c3c1OC1C4(CCC5[C@@H](C2)N(C)CC[C@@]351)OCCO4 (some centres unmarked)
- Hydrolysis in SGF [1]: ~2% hydrolyzed in 6.75 hours

Structure (SMILES): COc1ccc2c3c1OC1C4(CCC5(O)C(C2)N(C)CCC315)OC(C)CC(C)O4 (stereo not drawn) [IVB, oxycodone 2S,4R-pentanediol ketal]
- Oxycodone, Ketal A-D in hydrolysis mixture ([1]; 0 h): 10.3
- Oxycodone, Ketal A-D in hydrolysis mixture ([1]; 0.58 h): 9.8
- Oxycodone, Ketal A-D in hydrolysis mixture ([1]; 1.25 h): 10.4
- Oxycodone, Ketal A-D in hydrolysis mixture ([1]; 2 h): 9.7
- Oxycodone, Ketal A-D in hydrolysis mixture ([1]; 3 h): 10.2
- Oxycodone, Ketal A-D in hydrolysis mixture ([1]; 4 h): 9.1

Structure (SMILES): COc1ccc2c3c1O[C@H]1C4(CCC5(O)[C@@H](C2)N(C)CC[C@]315)O[C@@H](C)C[C@H](C)O4 (stereo partly drawn) [IVC, oxycodone 2S,4S-pentanediol ketal]
- time to almost complete hydrolysis [2]: ≤ 8 h
- % Oxycodone, % IVA-IVD in hydrolysis mixture ([2]; 0 h): 35.8%
- % Oxycodone, % IVA-IVD in hydrolysis mixture ([2]; 0.583 h): 29.2%
- % Oxycodone, % IVA-IVD in hydrolysis mixture ([2]; 1.167 h): 26%
- % Oxycodone, % IVA-IVD in hydrolysis mixture ([2]; 1.75 h): 20.6%
- % Oxycodone, % IVA-IVD in hydrolysis mixture ([2]; 2.33 h): 17.7%
- % Oxycodone, % IVA-IVD in hydrolysis mixture ([2]; 2.92 h): 15%
- % Oxycodone, % IVA-IVD in hydrolysis mixture ([2]; 4 h): 10.3%
- % Oxycodone, % IVA-IVD in hydrolysis mixture ([2]; 6.5 h): 4%
- % Oxycodone, % IVA-IVD in hydrolysis mixture ([2]; 9.75 h): 1.5%
- % Oxycodone, % IVA-IVD in hydrolysis mixture ([2]; 13.75 h): 0%
- % Oxycodone, % IVA-IVD in hydrolysis mixture ([2]; 25 h): 0%
- relative rate of hydrolysis [2]: hydrolyzes relatively slowly
- % IVC in hydrolysis mixture ([2]; 0 h): 98.7%
- % IVC in hydrolysis mixture ([2]; 0.75 h): 71.5%
- % IVC in hydrolysis mixture ([2]; 1.5 h): 54%
- % IVC in hydrolysis mixture ([2]; 3.33 h): 18.8%
- % IVC in hydrolysis mixture ([2]; 6 h): 4.7%
- % IVC in hydrolysis mixture ([2]; 8 h): 2.1%
- % Oxycodone, % IVA-IVD in hydrolysis mixture ([3]; 0 h): 36.2%
- % Oxycodone, % IVA-IVD in hydrolysis mixture ([3]; 0.5 h): 12.8%
- % Oxycodone, % IVA-IVD in hydrolysis mixture ([3]; 1 h): 5.9%
- % Oxycodone, % IVA-IVD in hydrolysis mixture ([3]; 2 h): 0.9%
- % Oxycodone, % IVA-IVD in hydrolysis mixture ([3]; 4.35 h): 0%
- % Oxycodone, % IVA-IVD in hydrolysis mixture ([3]; 10 h): 0%

Structure (SMILES): COc1ccc2c3c1O[C@H]1C4(CCC5(O)[C@@H](C2)N(C)CC[C@]315)O[C@H](C)C[C@@H](C)O4 (stereo partly drawn) [IVD, oxycodone 2R,4R-pentanediol ketal]
- time to almost complete hydrolysis [2]: ≤ 2 h
- % Oxycodone, % IVA-IVD in hydrolysis mixture ([2]; 0 h): 17.3%
- % Oxycodone, % IVA-IVD in hydrolysis mixture ([2]; 0.583 h): 8.6%
- % Oxycodone, % IVA-IVD in hydrolysis mixture ([2]; 1.167 h): 4.8%
- % Oxycodone, % IVA-IVD in hydrolysis mixture ([2]; 1.75 h): 2.6%
- % Oxycodone, % IVA-IVD in hydrolysis mixture ([2]; 2.33 h): 1.5%
- % Oxycodone, % IVA-IVD in hydrolysis mixture ([2]; 2.92 h): 0.7%
- % Oxycodone, % IVA-IVD in hydrolysis mixture ([2]; 4 h): 0%
- % Oxycodone, % IVA-IVD in hydrolysis mixture ([2]; 6.5 h): 0%
- % Oxycodone, % IVA-IVD in hydrolysis mixture ([2]; 9.75 h): 0%
- % Oxycodone, % IVA-IVD in hydrolysis mixture ([2]; 13.75 h): 0%
- % Oxycodone, % IVA-IVD in hydrolysis mixture ([2]; 25 h): 0%
- relative rate of hydrolysis [2]: hydrolyzes relatively quickly
- % Oxycodone, % IVD in hydrolysis mixture ([2]; 0 h): 99.8%
- % Oxycodone, % IVD in hydrolysis mixture ([2]; 0.17 h): 70%
- % Oxycodone, % IVD in hydrolysis mixture ([2]; 0.33 h): 44.8%
- % Oxycodone, % IVD in hydrolysis mixture ([2]; 1 h): 10.8%
- % Oxycodone, % IVD in hydrolysis mixture ([2]; 2 h): 2%
- % Oxycodone, % IVA-IVD in hydrolysis mixture ([3]; 0 h): 17.6%
- % Oxycodone, % IVA-IVD in hydrolysis mixture ([3]; 0.5 h): 1.5%
- % Oxycodone, % IVA-IVD in hydrolysis mixture ([3]; 1 h): 0%
- % Oxycodone, % IVA-IVD in hydrolysis mixture ([3]; 2 h): 0%
- % Oxycodone, % IVA-IVD in hydrolysis mixture ([3]; 4.35 h): 0%
- % Oxycodone, % IVA-IVD in hydrolysis mixture ([3]; 10 h): 0%
- hydrolysis of the ketal ([4]; pH 1, 0 h): 0
- hydrolysis of the ketal ([4]; pH 1, 0.33 h): 55.2
- hydrolysis of the ketal ([4]; pH 1, 1 h): 89.2
- hydrolysis of the ketal ([4]; pH 1, 2 h): 98
- hydrolysis of the ketal ([4]; pH 1, 4 h): 100
- hydrolysis of the ketal ([4]; pH 1.5, 0 h): 0
- hydrolysis of the ketal ([4]; pH 1.5, 0.33 h): 14.9
- hydrolysis of the ketal ([4]; pH 1.5, 1 h): 34.4
- hydrolysis of the ketal ([4]; pH 1.5, 2 h): 51.9
- hydrolysis of the ketal ([4]; pH 1.5, 4 h): 80.4
- hydrolysis of the ketal ([4]; pH 2, 0 h): 0
- hydrolysis of the ketal ([4]; pH 2, 0.33 h): 4.6
- hydrolysis of the ketal ([4]; pH 2, 1 h): 13.3
- hydrolysis of the ketal ([4]; pH 2, 2 h): 24.2
- hydrolysis of the ketal ([4]; pH 2, 4 h): 40.9
- hydrolysis of the ketal ([4]; pH 2.5, 0 h): 0
- hydrolysis of the ketal ([4]; pH 2.5, 0.33 h): 0
- hydrolysis of the ketal ([4]; pH 2.5, 1 h): 0
- hydrolysis of the ketal ([4]; pH 2.5, 2 h): 8.4
- hydrolysis of the ketal ([4]; pH 2.5, 4 h): 14.7
- hydrolysis of the ketal ([4]; pH 3, 0 h): 0
- hydrolysis of the ketal ([4]; pH 3, 0.33 h): 0
- hydrolysis of the ketal ([4]; pH 3, 1 h): 0
- hydrolysis of the ketal ([4]; pH 3, 2 h): 3.4
- hydrolysis of the ketal ([4]; pH 3, 4 h): 6.4
- pH at which hydrolysis of the ketal is fastest ([4]; pH buffers 37° C.): fastest at pH 1

Source: patent publication US11091496B2, “Opioid ketal compounds and uses thereof” (priority 2013, dated 2021)
